This passage reports Kd results from patent US11319299B2, “Substituted carboxamides as inhibitors of WDR5 protein-protein binding” (PROPELLON THERAPEUTICS INC., priority 2016, dated 2022).

Each structure is given as a SMILES string.

The target of the test is WDR5 (Homo sapiens (Human), UniProt P61964). In words: Surface Plasmon Resonance (SPR) assay, KD and residence time. The class given is binding. The following applies: surface plasmon resonance (SPR); read-out: WDR5 binding affinity (KD). (In SPR one partner is held on a chip, and binding of the other changes the refractive index at the surface.)
The term Kd denotes the equilibrium constant for the complex coming apart. In the case of `C[C@@H]1CN(c2cc(F)c(C3=CCN(C(=O)c4cnccn4)CC3)cc2NC(=O)c2c[nH]c(=O)cc2C(F)(F)F)C[C@H](C)N1C` [Example 573, N-[4-fluoro-5-[1-(pyrazine-2-carbonyl)-3,6-dihydro-2H-pyridin-4-yl]-2-[(3R,5S)-3,4,5-trimethylpiperazin-1-yl]phenyl]-6-oxo-4-(trifluoromethyl)-1H-pyridine-3-carboxamide], the Kd turned out to be 2.19 nM.

Turning to `COCCN(C)[C@@H]1CCN(c2cc(F)c(-c3cnc(N4CCOCC4)nc3)cc2NC(=O)c2c[nH]c(=O)cc2C(F)(F)F)C1` [Example 578, N-[4-fluoro-5-(2-morpholin-4-ylpyrimidin-5-yl)-2-[(3R)-3-[2-methoxyethyl(methyl)amino]pyrrolidin-1-yl]phenyl]-6-oxo-4-(trifluoromethyl)-1H-pyridine-3-carboxamide], the Kd was 16.9 nM.

Turning to `C[C@@H]1CN(c2cc(F)c(-c3ccc(S(C)(=O)=O)nc3)cc2NC(=O)c2c[nH]c(=O)cc2C(F)(F)F)C[C@H](C)N1C` [Example 581, N-[4-fluoro-5-(6-methylsulfonylpyridin-3-yl)-2-[(3R,5S)-3,4,5-trimethylpiperazin-1-yl]phenyl]-6-oxo-4-(trifluoromethyl)-1H-pyridine-3-carboxamide], the Kd came out at 0.768 nM.

Consider `C[C@@H]1CN(c2cc(F)c(-c3cnc(NS(C)(=O)=O)nc3)cc2NC(=O)c2c[nH]c(=O)cc2C(F)(F)F)C[C@H](C)N1C` [Example 582, N-[4-fluoro-5-[2-(methanesulfonamido)pyrimidin-5-yl]-2-[(3R,5S)-3,4,5-trimethylpiperazin-1-yl]phenyl]-6-oxo-4-(trifluoromethyl)-1H-pyridine-3-carboxamide], for which the Kd came out at 5.78 nM.

For `C[C@@H]1CN(c2cc(F)c(C3=CCCN(c4ncc(C#N)cn4)C3)cc2NC(=O)c2c[nH]c(=O)cc2C(F)(F)F)C[C@H](C)N1C` [Example 583, N-[5-[1-(5-cyanopyrimidin-2-yl)-3,6-dihydro-2H-pyridin-5-yl]-4-fluoro-2-[(3R,5S)-3,4,5-trimethylpiperazin-1-yl]phenyl]-6-oxo-4-(trifluoromethyl)-1H-pyridine-3-carboxamide], the Kd is 0.877 nM.

For `CN(CC1CC1)[C@@H]1CCN(c2cc(F)c(-c3cnc(N4CCOCC4)nc3)cc2NC(=O)c2c[nH]c(=O)cc2C(F)(F)F)C1` [Example 586, N-[4-fluoro-5-(2-morpholin-4-ylpyrimidin-5-yl)-2-[(3R)-3-[cyclopropylmethyl(methyl)amino]pyrrolidin-1-yl]phenyl]-6-oxo-4-(trifluoromethyl)-1H-pyridine-3-carboxamide], the Kd stood at 15.5 nM.

Take `CN(CC1CC1)[C@@H]1CCN(c2cc(F)c(-c3cnc(N4CCOCC4)nc3)cc2NC(=O)c2cn(C)c(=O)cc2C(F)(F)F)C1` [Example 587, N-[4-fluoro-5-(2-morpholin-4-ylpyrimidin-5-yl)-2-[(3R)-3-[cyclopropylmethyl(methyl)amino]pyrrolidin-1-yl]phenyl]-1-methyl-6-oxo-4-(trifluoromethyl)pyridine-3-carboxamide]: the Kd stood at 253 nM.

Take `C[C@@H]1CN(c2cc(F)c(C3=CCN(c4ncc(C#N)cn4)C3)cc2NC(=O)c2c[nH]c(=O)cc2C(F)(F)F)C[C@H](C)N1C` [Example 588, N-[5-[1-(5-cyanopyrimidin-2-yl)-2,5-dihydropyrrol-3-yl]-4-fluoro-2-[(3R,5S)-3,4,5-trimethylpiperazin-1-yl]phenyl]-6-oxo-4-(trifluoromethyl)-1H-pyridine-3-carboxamide]: the dissociation constant Kd turned out to be 1.72 nM.

For `C[C@@H]1CN(c2cc(F)c(-c3ccc(F)c(C(N)=O)c3)cc2NC(=O)c2cn(C)c(=O)cc2C(F)(F)F)C[C@H](C)N1C` [Example 589, N-[5-(3-carbamoyl-4-fluorophenyl)-4-fluoro-2-[(3R,5S)-3,4,5-trimethylpiperazin-1-yl]phenyl]-1-methyl-6-oxo-4-(trifluoromethyl)pyridine-3-carboxamide], the Kd was 7.46 nM.

`C[C@@H]1CN(c2cc(F)c(-c3ccc(C(N)=O)c(F)c3)cc2NC(=O)c2cn(C)c(=O)cc2C(F)(F)F)C[C@H](C)N1C` [Example 590, N-[5-(4-carbamoyl-3-fluorophenyl)-4-fluoro-2-[(3R,5S)-3,4,5-trimethylpiperazin-1-yl]phenyl]-1-methyl-6-oxo-4-(trifluoromethyl)pyridine-3-carboxamide]: the dissociation constant (Kd) turned out to be 3.32 nM.

For `C[C@@H]1CN(c2cc(F)c(-c3ccc(F)c(C(N)=O)c3)cc2NC(=O)c2cn(C)c(=O)cc2C(F)F)C[C@H](C)N1C` [Example 591, N-[5-(3-carbamoyl-4-fluorophenyl)-4-fluoro-2-[(3R,5S)-3,4,5-trimethylpiperazin-1-yl]phenyl]-4-(difluoromethyl)-1-methyl-6-oxopyridine-3-carboxamide], the Kd worked out at 15.5 nM.

Take `C[C@@H]1CN(c2cc(F)c(-c3ccc(C(N)=O)c(F)c3)cc2NC(=O)c2cn(C)c(=O)cc2C(F)F)C[C@H](C)N1C` [Example 592, N-[5-(4-carbamoyl-3-fluorophenyl)-4-fluoro-2-[(3R,5S)-3,4,5-trimethylpiperazin-1-yl]phenyl]-4-(difluoromethyl)-1-methyl-6-oxopyridine-3-carboxamide]: the Kd came to 6.8 nM.

Turning to `CC(C)OC(=O)N1CCC=C(c2cc(NC(=O)c3c[nH]c(=O)cc3C(F)(F)F)c(N3C[C@@H](C)N(C)[C@@H](C)C3)cc2F)C1` [Example 601, propan-2-yl 5-[2-fluoro-5-[[6-oxo-4-(trifluoromethyl)-1H-pyridine-3-carbonyl]amino]-4-[(3R,5S)-3,4,5-trimethylpiperazin-1-yl]phenyl]-3,6-dihydro-2H-pyridine-1-carboxylate], the Kd was found to be 0.271 nM.

As for `CC(C)OC(=O)N1CC=C(c2cc(NC(=O)c3c[nH]c(=O)cc3C(F)(F)F)c(N3C[C@@H](C)N(C)[C@@H](C)C3)cc2F)CC1` [Example 602, propan-2-yl 4-[2-fluoro-5-[[6-oxo-4-(trifluoromethyl)-1H-pyridine-3-carbonyl]amino]-4-[(3R,5S)-3,4,5-trimethylpiperazin-1-yl]phenyl]-3,6-dihydro-2H-pyridine-1-carboxylate], the Kd is 0.475 nM.

For `CNC(=O)c1ccc(-c2cc(NC(=O)c3c[nH]c(=O)cc3C(F)(F)F)c(N3C[C@@H](C)N(C)[C@@H](C)C3)cc2F)cc1F` [Example 603, N-[4-fluoro-5-[3-fluoro-4-(methylcarbamoyl)phenyl]-2-[(3R,5S)-3,4,5-trimethylpiperazin-1-yl]phenyl]-6-oxo-4-(trifluoromethyl)-1H-pyridine-3-carboxamide], the Kd was determined as 1.09 nM.

For the compound `CNC(=O)c1cc(-c2cc(NC(=O)c3c[nH]c(=O)cc3C(F)(F)F)c(N3C[C@@H](C)N(C)[C@@H](C)C3)cc2F)ccc1F` [Example 604, N-[4-fluoro-5-[4-fluoro-3-(methylcarbamoyl)phenyl]-2-[(3R,5S)-3,4,5-trimethylpiperazin-1-yl]phenyl]-6-oxo-4-(trifluoromethyl)-1H-pyridine-3-carboxamide], the Kd was found to be 1.71 nM.

In the case of `CNC(=O)c1ccc(-c2cc(NC(=O)c3c[nH]c(=O)cc3C(F)F)c(N3C[C@@H](C)N(C)[C@@H](C)C3)cc2F)cc1F` [Example 605, 4-(difluoromethyl)-N-[4-fluoro-5-[3-fluoro-4-(methylcarbamoyl)phenyl]-2-[(3R,5S)-3,4,5-trimethylpiperazin-1-yl]phenyl]-6-oxo-1H-pyridine-3-carboxamide], the Kd amounted to 0.6 nM.
